Columns and labels:
Format in all cases: cell-based
[1] = system: human skin fibroblast derived from four different donors; assay: Gene transfer efficiency, double positive cells, fibroblast of four donors, gene transfer two times (Example 12); conditions: sixth day of culture, N=2
Protocol: Gene transfer efficiencies using a plurality of retrovirus vectors with Retronectin or polybrene were further compared. Introduction of a fluorescent protein gene was carried out targeting human skin fibroblast derived from four different donors, using a method of performing gene transfer two times as in the pluripotent stem cell inducing experiment. In the present Example, the cell A indicates derived from a person, the cell B indicates derived from a person, the cell C indicates derived from a person, and the cell D indicates derived from a person (all manufactured by Lonza).
According to the same manner as that of Example 8-(1), immobilization of Retronectin on a culture plate was carried out.
According to the same manner as that of Example 8-(2), gene transfer was carried out (day 0 of culturing), provided that a group in which a virus solution was diluted 10-fold, 100-fold or 1000-fold with 10F-DMEM was set.
According to the same manner as that of Example 8-(3), a gene transfer efficiency was measured on the sixth day of culture. […] In addition, the number in the Table indicates an average value of N=2.

human skin fibroblast [2] = assay: iPS cell colony induction, gene transfer with Retronectin or polybrene once or two times (Example 7); conditions: 28th day of culture, N=2
Protocol: Regarding gene transfer with a retrovirus vector, introduction was carried out once or two times using Retronectin or polybrene, and induction of a pluripotent stem cell was carried out, followed by comparison.
Regarding gene transfer with Retronectin, according to the same manner as that of Example 4-(2), gene transfer was carried out. Gene transfer with polybrene was carried out as follows. […] Each 700 μL of the virus solutions prepared by Preparation Example 2 were mixed in a combination of the condition C of Table 3, polybrene was added to a final concentration of 8 μg/mL to prepare a retrovirus vector mixed solution, the supernatant was removed from the plate on which the cell had been cultured, this retrovirus vector mixed solution was added, and culturing was initiated (day 0 of culturing).
Gene transfer with polybrene was carried out according to the same manner as that of gene transfer with polybrene of Example 7-(2). That is, the supernatant was removed from the plate on which the cell had been cultured, a retrovirus vector mixed solution prepared similarly was added, and culturing was continued.
On the sixth day of culture, according to the same manner as that of Example 5-(4), the gene-introduced cell was seeded on a feeder cell, and culturing was continued, provided that the gene-introduced cell was seeded by each 1.75×10^4 cells.
The number in the Table indicates an average value of N=2.

human skin fibroblast [3] = assay: iPS cell colony induction with three genes OCT4, SOX2 and KLF4, Retronectin or polybrene (Example 11); conditions: OCT4, SOX2 and KLF4 only, 28th day of culture, N=2
Protocol: By limiting a gene to be introduced to three kinds of OCT4, SOX2 and KLF4, the same experiment as that of Example 10 was carried out.
According to the same manner as that of Example 10-(2), gene transfer was carried out, provided that, as the retrovirus vector, retrovirus vectors DON5-am-OCT4-IR-SOX2 and DON5-am-KLF4 prepared in Preparation Example 2 were used.
According to the same manner as that of Example 10-(4), the gene-introduced cell was seeded on a feeder cell, and culturing was continued.
Culturing was carried out according to the same manner as that of Example 10-(5).
In addition, the number in the Table indicates an average value of N=2.

[4] = system: mouse embryonic fibroblast; MEF; assay: Efficiency of introducing a retrovirus vector into MEF, AcGFP1 positive cell rate (Example 23); conditions: four days after gene transfer
Protocol: An efficiency of introducing a gene into MEF using a retrovirus vector was compared between a Retronectin method and a polybrene method.
According to the same manner as that of Example 1-(1), immobilization of Retronectin on a culture plate was carried out, provided that, as a plate on which Retronectin is coated, a non-treatment 12-well plate (manufactured by Becton, Dickinson and Company) was used, and each 1 mL of a Retronectin solution (25 μg/mL) was added to each well.
According to the same manner as that of Example 19-(2) and (3), gene transfer was carried out. The retrovirus vector was prepared according to the same manner as that of Preparation Example 3, and DON-eco-AcGFP1 made using pE-Eco plasmid (manufactured by TAKARA BIO INC.) in place of pE-Ampho plasmid was used. Each of the prepared retrovirus vector as a stock solution, and solutions obtained by diluting the stock solution by each 10-fold to 100000-fold with 10F-DMEM was used for infection. In addition, as a target cell, MEF (manufactured by Millipore) was used.
On the next day of gene transfer, the medium was exchanged with 10F-DMEM.
Four days after a gene transfer operation, the cells were recovered, and an AcGFP1 positive cell rate was measured with a flow cytometer.

Retronectin: fragment of fibronectin having a heparin-II binding region (registered trademark, CH-296, TAKARA BIO INC.)
Ratio of double positive cells ([1]; Cell A, Virus 10-fold dilution): 55.9 | Ratio of double positive cells ([1]; Cell A, Virus 100-fold dilution): 61.6 | Ratio of double positive cells ([1]; Cell A, Virus 1000-fold dilution): 51.9 | Ratio of double positive cells ([1]; Cell A, Virus stock solution): 42.5 | Ratio of double positive cells ([1]; Cell B, Virus 10-fold dilution): 49.7 | Ratio of double positive cells ([1]; Cell B, Virus 100-fold dilution): 57.7 | Ratio of double positive cells ([1]; Cell B, Virus 1000-fold dilution): 48.7 | Ratio of double positive cells ([1]; Cell B, Virus stock solution): 35.9 | Ratio of double positive cells ([1]; Cell C, Virus 10-fold dilution): 54.6 | Ratio of double positive cells ([1]; Cell C, Virus 100-fold dilution): 60.2 | Ratio of double positive cells ([1]; Cell C, Virus 1000-fold dilution): 46.4 | Ratio of double positive cells ([1]; Cell C, Virus stock solution): 42.1 | Ratio of double positive cells ([1]; Cell D, Virus 10-fold dilution): 54.2 | Ratio of double positive cells ([1]; Cell D, Virus 100-fold dilution): 63.2 | Ratio of double positive cells ([1]; Cell D, Virus 1000-fold dilution): 51.0 | Ratio of double positive cells ([1]; Cell D, Virus stock solution): 38.4 | Number of iPS cell colonies (human skin fibroblast [2]; gene transfer once, with protein starvation treatment): 25.5 | Number of iPS cell colonies (human skin fibroblast [2]; gene transfer once, without protein starvation treatment): 9.5 | Number of iPS cell colonies (human skin fibroblast [2]; gene transfer two times, with protein starvation treatment): 30.0 | Number of iPS cell colonies (human skin fibroblast [2]; gene transfer two times, without protein starvation treatment): 26.0 | Number of iPS cell colonies (human skin fibroblast [3]; virus 10-fold dilution): 28.0 | Number of iPS cell colonies (human skin fibroblast [3]; virus 100-fold dilution): 32.0 | Number of iPS cell colonies (human skin fibroblast [3]; virus solution undiluted): 13.0 | Positive cell rate ([4]; Virus concentration 0.00001): 5.9% | Positive cell rate ([4]; Virus concentration 0.0001): 15.3% | Positive cell rate ([4]; Virus concentration 0.001): 41.3% | Positive cell rate ([4]; Virus concentration 0.01): 64.6% | Positive cell rate ([4]; Virus concentration 0.1): 80.3% | Positive cell rate ([4]; Virus concentration 1.0): 84.1%

— patent US9238797B2, “Method for production of pluripotent stem cell” (TAKARA BIO INC., priority 2008, dated 2016)
